Source: ChEMBL document CHEMBL1201862, “PubChem BioAssay data set” (2004)
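Following 48 hours of exposure in 96-well plates, responses at five concentrations were used to interpolate endpoints linearly. GI50: concentration for 50% inhibition of growth.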 Activity calls are given as the source filed them. No stated cut-off is given here; in the data, active = GI50 up to about 1.1 µM and inactive = higher.

Experiments:
Assay in all cases: NCI tumour cell line growth inhibition, 48 h
M14 = system: M14
SNB-75 = system: SNB-75
A549 = system: A549
CCRF-CEM = system: CCRF-CEM
SNB-19 = system: SNB-19
NCI-H226 = system: NCI-H226
MCF7 = system: MCF7
U-251 = system: U-251
HOP-62 = system: HOP-62
SK-MEL-28 = system: SK-MEL-28
SW-620 = system: SW-620
RPMI-8226 = system: RPMI-8226
UACC-62 = system: UACC-62
MOLT-4 = system: MOLT-4
NCI/ADR-RES = system: NCI/ADR-RES
HCC 2998 = system: HCC 2998
SF-295 = system: SF-295
SK-OV-3 = system: SK-OV-3
NCI-H522 = system: NCI-H522
Malme-3M = system: Malme-3M

Structure (SMILES) | GI50 (M14) | GI50 (SNB-75) | GI50 (A549) | GI50 (CCRF-CEM) | GI50 (SNB-19) | GI50 (NCI-H226) | GI50 (MCF7) | GI50 (U-251) | GI50 (HOP-62) | GI50 (SK-MEL-28) | GI50 (SW-620) | GI50 (RPMI-8226) | GI50 (UACC-62) | GI50 (MOLT-4) | GI50 (NCI/ADR-RES) | GI50 (HCC 2998) | GI50 (SF-295) | GI50 (SK-OV-3) | GI50 (NCI-H522) | GI50 (Malme-3M)
COP1(=O)NCc2ncccc2O1 (configuration not stated) | > 100 µM (inactive) | > 100 µM (inactive) | > 100 µM (inactive) | > 100 µM (inactive) | > 100 µM (inactive) | > 100 µM (inactive) | > 100 µM (inactive) | > 100 µM (inactive) | > 100 µM (inactive) | > 100 µM (inactive) | > 100 µM (inactive) | > 100 µM (inactive) | > 100 µM (inactive) | > 100 µM (inactive) | > 100 µM (inactive) | > 100 µM (inactive) | > 100 µM (inactive) |  |  | 
OCC(O)COCn1nncc1Cn1ncc2c(SCc3ccccc3)ncnc21 (configuration not stated) | > 100 µM (inactive) |  | > 100 µM (inactive) | > 100 µM (inactive) | > 100 µM (inactive) |  | > 100 µM (inactive) | > 100 µM (inactive) | > 100 µM (inactive) | > 100 µM (inactive) | > 100 µM (inactive) |  | > 100 µM (inactive) |  | > 100 µM (inactive) | > 100 µM (inactive) | > 100 µM (inactive) | > 100 µM (inactive) | 8.89 µM (inactive) | 
Cc1cc2c(cc1Cl)SC(c1ccccc1O)NS2(=O)=O (configuration not stated) | 57 µM (inactive) | > 100 µM (inactive) | > 100 µM (inactive) | < 0.01 µM (active) | 81.3 µM (inactive) | 86.5 µM (inactive) | 36.9 µM (inactive) | 72.9 µM (inactive) | > 100 µM (inactive) | 49.4 µM (inactive) | 19.2 µM (inactive) |  | 29.6 µM (inactive) | 12.5 µM (inactive) | 30.7 µM (inactive) | 31 µM (inactive) | > 100 µM (inactive) | > 100 µM (inactive) | 48.9 µM (inactive) | 24.4 µM (inactive)
O=C(NNc1cn[nH]c(=O)n1)c1cccc2nc3ccccc3nc12 | > 100 µM (inactive) |  | > 100 µM (inactive) | 45.7 µM (inactive) | 74 µM (inactive) | 82.2 µM (inactive) | > 100 µM (inactive) | 27.9 µM (inactive) |  | > 100 µM (inactive) | > 100 µM (inactive) | > 100 µM (inactive) | 61.5 µM (inactive) | 11 µM (inactive) | > 100 µM (inactive) | 25.1 µM (inactive) | 30.2 µM (inactive) | 33.4 µM (inactive) |  | 47.5 µM (inactive)
COc1ccccc1NC(=O)C(=O)Cc1cnc2ccccc2n1 | > 100 µM (inactive) | 41 µM (inactive) | > 100 µM (inactive) | > 100 µM (inactive) | > 100 µM (inactive) | > 100 µM (inactive) | > 100 µM (inactive) | > 100 µM (inactive) |  | > 100 µM (inactive) | > 100 µM (inactive) | > 100 µM (inactive) | > 100 µM (inactive) | > 100 µM (inactive) | > 100 µM (inactive) | > 100 µM (inactive) | > 100 µM (inactive) | > 100 µM (inactive) |  | 
CCCCCCCCCCCCCCCCC(C(=O)O)C(O)(CC(=O)O)C(=O)O (configuration not stated) | 19.7 µM (inactive) | 20 µM (inactive) |  | 27.1 µM (inactive) | 23.9 µM (inactive) | 22.6 µM (inactive) | 34.9 µM (inactive) | 16.7 µM (inactive) | 17.2 µM (inactive) | 23.9 µM (inactive) | 20 µM (inactive) | 26.7 µM (inactive) | 18.2 µM (inactive) | 25.5 µM (inactive) | 57 µM (inactive) |  | 17.7 µM (inactive) | 17.7 µM (inactive) |  | 58.6 µM (inactive)
c1cn[nH]c1 [PYRAZOLE] |  | > 10 µM (inactive) | > 10 µM (inactive) | > 10 µM (inactive) | > 10 µM (inactive) | > 10 µM (inactive) | > 10 µM (inactive) | > 10 µM (inactive) | > 10 µM (inactive) | > 10 µM (inactive) | > 10 µM (inactive) | > 10 µM (inactive) | > 10 µM (inactive) | > 10 µM (inactive) | > 10 µM (inactive) | > 10 µM (inactive) | > 10 µM (inactive) | > 10 µM (inactive) |  | > 10 µM (inactive)
Cn1cc(NC(=O)c2cc(NC(=O)c3cc(NC=O)cn3C)cn2C)cc1C(=O)NCCC(=N)N [STALLIMYCIN] | > 100 µM (inactive) | 22.8 µM (inactive) |  | > 100 µM (inactive) | > 100 µM (inactive) | 7.87 µM (inactive) | > 100 µM (inactive) | > 100 µM (inactive) | > 100 µM (inactive) | > 100 µM (inactive) | > 100 µM (inactive) | > 100 µM (inactive) | 61.4 µM (inactive) | > 100 µM (inactive) | > 100 µM (inactive) |  | > 100 µM (inactive) | > 100 µM (inactive) |  | 25.5 µM (inactive)
